Reference: the supplement of paper PMC10307832

Assays:
Assay in all cases: relative viability (nuclei count vs DMSO), 5 days (fraction); higher = more cells survive
ChaGo-K-1 = test system: ChaGo-K-1
How it was run: (§1)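 Relative viability is defined as nuclei in treated wells over nuclei in vehicle wells. Duplicate plates were run and medians reported. Lung cancer cell lines in 1536-well plates were dosed by pin tool one day after seeding, with one drug or with a fixed anchor-drug dose plus five library-drug doses (not always all listed) in √10 steps, and nuclei were counted after 5 days.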

NCI-H2126 = test system: NCI-H2126
How it was run: as §1

EPLC-272H = test system: EPLC-272H
How it was run: as §1

SW 1573 = test system: SW 1573
How it was run: as §1

NCI-H2023 = test system: NCI-H2023
How it was run: as §1

NCI-H460 = test system: NCI-H460
How it was run: as §1

NCI-H441 = test system: NCI-H441
How it was run: as §1

NCI-H2170 = test system: NCI-H2170
How it was run: as §1

LOU-NH91 = test system: LOU-NH91
How it was run: as §1

NCI-H727 = test system: NCI-H727
How it was run: as §1

NCI-H23 = test system: NCI-H23
How it was run: as §1

NCI-H650 = test system: NCI-H650
How it was run: as §1

NCI-H1437 = test system: NCI-H1437
How it was run: as §1

LCLC-103H = test system: LCLC-103H
How it was run: as §1

HOP-62 = test system: HOP-62
How it was run: as §1

NCI-H2405 = test system: NCI-H2405
How it was run: as §1

NCI-H2347 = test system: NCI-H2347
How it was run: as §1

NCI-H1793 = test system: NCI-H1793
How it was run: as §1

NCI-H2009 = test system: NCI-H2009
How it was run: as §1

NCI-H647 = test system: NCI-H647
How it was run: as §1

EMC-BAC-2 = test system: EMC-BAC-2
How it was run: as §1

NCI-H520 = test system: NCI-H520
How it was run: as §1

Cc1cnc(-c2cnc(NCCNc3ccc(C#N)cn3)nc2-c2ccc(Cl)cc2Cl)[nH]1 + COc1cc2c(Oc3ccc(NC(=O)C4(C(=O)Nc5ccc(F)cc5)CC4)cc3F)ccnc2cc1OCCCN1CCOCC1 [Foretinib] (partner 0.25 µM)
relative viability (ChaGo-K-1; first compound 0.08 µM): 0.941
relative viability (ChaGo-K-1; first compound 0.253 µM): 0.84
relative viability (ChaGo-K-1; first compound 0.8 µM): 0.945
relative viability (ChaGo-K-1; first compound 2.53 µM): 0.921
relative viability (NCI-H2126; first compound 0.08 µM): 1.33
relative viability (NCI-H2126; first compound 0.253 µM): 1.22
relative viability (NCI-H2126; first compound 0.8 µM): 1
relative viability (NCI-H2126; first compound 2.53 µM): 1.08
relative viability (EPLC-272H; first compound 0.08 µM): 0.737
relative viability (EPLC-272H; first compound 0.253 µM): 0.617
relative viability (EPLC-272H; first compound 0.8 µM): 0.692
relative viability (EPLC-272H; first compound 2.53 µM): 0.747
relative viability (SW 1573; first compound 0.08 µM): 0.929
relative viability (SW 1573; first compound 0.253 µM): 0.87
relative viability (SW 1573; first compound 0.8 µM): 0.907
relative viability (SW 1573; first compound 2.53 µM): 0.769
relative viability (NCI-H2023; first compound 0.08 µM): 0.709
relative viability (NCI-H2023; first compound 0.8 µM): 0.938
relative viability (NCI-H2023; first compound 2.53 µM): 1.18
relative viability (NCI-H460; first compound 0.08 µM): 1.1
relative viability (NCI-H460; first compound 0.253 µM): 0.947
relative viability (NCI-H460; first compound 0.8 µM): 0.981
relative viability (NCI-H460; first compound 2.53 µM): 0.885
relative viability (NCI-H441; first compound 0.08 µM): 1.2
relative viability (NCI-H441; first compound 0.253 µM): 0.926
relative viability (NCI-H441; first compound 0.8 µM): 1.01
relative viability (NCI-H441; first compound 2.53 µM): 0.958
relative viability (NCI-H2170; first compound 0.08 µM): 0.953
relative viability (NCI-H2170; first compound 0.253 µM): 0.906
relative viability (NCI-H2170; first compound 0.8 µM): 0.965
relative viability (NCI-H2170; first compound 2.53 µM): 0.997
relative viability (LOU-NH91; first compound 0.08 µM): 0.975
relative viability (LOU-NH91; first compound 0.253 µM): 0.901
relative viability (LOU-NH91; first compound 0.8 µM): 0.96
relative viability (LOU-NH91; first compound 2.53 µM): 0.942
relative viability (NCI-H727; first compound 0.08 µM): 0.943
relative viability (NCI-H727; first compound 0.253 µM): 0.918
relative viability (NCI-H727; first compound 0.8 µM): 0.732
relative viability (NCI-H727; first compound 2.53 µM): 0.898
relative viability (NCI-H23; first compound 0.08 µM): 0.938
relative viability (NCI-H23; first compound 0.253 µM): 1
relative viability (NCI-H23; first compound 0.8 µM): 0.983
relative viability (NCI-H23; first compound 2.53 µM): 1
relative viability (NCI-H650; first compound 0.08 µM): 1.07
relative viability (NCI-H650; first compound 0.253 µM): 0.994
relative viability (NCI-H650; first compound 0.8 µM): 1.09
relative viability (NCI-H650; first compound 2.53 µM): 1.03
relative viability (NCI-H1437; first compound 0.08 µM): 1.18
relative viability (NCI-H1437; first compound 0.253 µM): 1.25
relative viability (NCI-H1437; first compound 0.8 µM): 1.24
relative viability (NCI-H1437; first compound 2.53 µM): 1.25
relative viability (LCLC-103H; first compound 0.08 µM): 0.751
relative viability (LCLC-103H; first compound 0.253 µM): 0.734
relative viability (LCLC-103H; first compound 0.8 µM): 0.745
relative viability (LCLC-103H; first compound 2.53 µM): 0.79
relative viability (HOP-62; first compound 0.08 µM): 1.05
relative viability (HOP-62; first compound 0.253 µM): 1.02
relative viability (HOP-62; first compound 0.8 µM): 1.12
relative viability (HOP-62; first compound 2.53 µM): 0.947
relative viability (NCI-H2405; first compound 0.08 µM): 1.04
relative viability (NCI-H2405; first compound 0.253 µM): 0.974
relative viability (NCI-H2405; first compound 0.8 µM): 1.05
relative viability (NCI-H2405; first compound 2.53 µM): 0.845
relative viability (NCI-H2347; first compound 0.08 µM): 0.963
relative viability (NCI-H2347; first compound 0.253 µM): 1.11
relative viability (NCI-H2347; first compound 0.8 µM): 0.877
relative viability (NCI-H2347; first compound 2.53 µM): 0.841
relative viability (NCI-H1793; first compound 0.08 µM): 0.807
relative viability (NCI-H1793; first compound 0.253 µM): 0.545
relative viability (NCI-H1793; first compound 0.8 µM): 0.684
relative viability (NCI-H1793; first compound 2.53 µM): 0.723
relative viability (NCI-H2009; first compound 0.08 µM): 1.27
relative viability (NCI-H2009; first compound 0.253 µM): 1.21
relative viability (NCI-H2009; first compound 0.8 µM): 1.35
relative viability (NCI-H2009; first compound 2.53 µM): 1.03
relative viability (NCI-H647; first compound 0.08 µM): 1.35
relative viability (NCI-H647; first compound 0.253 µM): 1.03
relative viability (NCI-H647; first compound 0.8 µM): 0.938
relative viability (NCI-H647; first compound 2.53 µM): 1.15
relative viability (EMC-BAC-2; first compound 0.08 µM): 1.1
relative viability (EMC-BAC-2; first compound 0.253 µM): 0.964
relative viability (EMC-BAC-2; first compound 0.8 µM): 1.02
relative viability (EMC-BAC-2; first compound 2.53 µM): 0.939
relative viability (NCI-H520; first compound 0.08 µM): 0.71
relative viability (NCI-H520; first compound 0.253 µM): 0.593
relative viability (NCI-H520; first compound 0.8 µM): 0.918
relative viability (NCI-H520; first compound 2.53 µM): 1.04
